Source: patent US11559538B2, “Substituted 1,2-oxaborolan-2-ols as PDE4 inhibitors” (Pfizer Inc., priority 2018, dated 2023)
Like-named read-outs stand apart in the source and are kept apart here.

Experiments:
IL-13 = assay: Cytokine assay: IL-13 release from PHA-L stimulated human PBMCs; assay type: cell-based; conditions: read-out: IL13 IC50
How it was run: (§1)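 Thawed cryopreserved human PBMCs (~250,000 cells/well) in RPMI 1640 with 10% heat-inactivated FBS were treated with compound for ~10 min at room temperature, then stimulated with 3.5 μg/mL PHA-L (final) for 48 h at 37° C. Supernatant cytokine was measured by HTRF, and IC50 was derived by four-parameter logistic fit.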

IFNγ = assay: Cytokine assay: IFNγ release from PHA-L stimulated human PBMCs; assay type: cell-based
How it was run: as §1

IL-4 = assay: Cytokine assay: IL-4 release from PHA-L stimulated human PBMCs; assay type: cell-based; conditions: read-out: IL4 IC50
How it was run: as §1

[1] = target: PDE4B (aa 152-484, Uniprot ID Q07343) (Homo sapiens (Human), UniProt Q07343); assay: PDE4 SPA assay (scintillation proximity assay); assay type: biochemical; conditions: read-out: PDE4B2 IC50
Chain of PDE4B (aa 152-484, Uniprot ID Q07343) (Q07343 324-656): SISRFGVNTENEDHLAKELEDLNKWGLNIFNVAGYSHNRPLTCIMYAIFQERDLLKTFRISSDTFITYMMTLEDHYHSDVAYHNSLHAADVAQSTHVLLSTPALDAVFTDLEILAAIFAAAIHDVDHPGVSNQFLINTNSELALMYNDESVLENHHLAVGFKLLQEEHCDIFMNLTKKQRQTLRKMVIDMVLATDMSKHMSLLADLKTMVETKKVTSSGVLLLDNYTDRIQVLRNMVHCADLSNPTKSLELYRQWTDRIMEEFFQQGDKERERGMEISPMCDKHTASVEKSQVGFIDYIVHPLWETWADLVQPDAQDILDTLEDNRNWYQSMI
Experimental: Phosphodiesterase (PDE) activity is determined by measuring the effect of a test agent on the activity of the PDE4B enzyme in a scintillation proximity assay (SPA). At the time of assay, approximately 30 μL of PDE4B (aa 152-484, Uniprot ID Q07343) in 50 mM Tris pH 7.5, 1.3 mM MgC2, 0.004% Brij 35 is added to a 384 well white clear bottom polystyrene plate (Corning) containing 1 μL of varying concentrations of test compound. After −10 minutes at room temperature (RT; 21° C.), the assay is initiated by the addition of 20 μL of a mixture of ^3H-labeled (adenosine 3′, 5′-cyclic phosphate, ammonium salt, [2,8-^3H]; Perkin Elmer) and unlabeled cAMP. The final assay conditions are approximately 81.6 pM PDE4B in 50 mM Tris pH 7.5, 1.3 mM MgCl2, 0.004% Brij 35, 1 μM ^3H-labeled/unlabeled cAMP (1425 dpm/pmol) and the indicated final concentration of test compound (approximately 10 μM to […] by 4-fold dilution). The final concentration of DMSO in the assay is approximately 2.0%. After 30 minutes at RT, the assay is terminated by the addition of approximately 20 μL of an aqueous solution of PDE YSI SPA beads (8 mg/mL in water; Perkin Elmer). The beads are allowed to settle for at least 2 hours and the plate is then counted on a MicroBeta2 (Perkin Elmer). The concentrations and resulting effect values for the tested compound are plotted and the concentration of compound required for 50% effect (IC50) is determined with a four-parameter logistic dose response equation (E-WorkBook, ID Business Solutions Ltd.) and shown in Table 17.

SMILES	IC50 (IL-13; Homo sapiens, PBMC) [nM]	IC50 (IFNγ; Homo sapiens, PBMC) [nM]	IC50 (IL-4; Homo sapiens, PBMC) [nM]	IC50 [1] [nM]	IC50 (IL-13) [nM]	IC50 (IFNγ) [nM]	IC50 (IL-4) [nM]
CCOc1ccc(-c2cncc(C3COB(O)C3)c2)cc1OC (single isomer, unassigned; enantiomer2) [Example 188, 4-(5-(4-ethoxy-3-methoxyphenyl)pyridin-3-yl)-1,2-oxaborolan-2-ol, enantiomer2]	1530	12.2	135	12.5	–	–	–
CCOc1c(OC)cc(F)c(-c2cncc(C3COB(O)C3)c2)c1F (single isomer, unassigned; enantiomer 1) [Example 164, (−) 4-(5-(3-ethoxy-2,6-difluoro-4-methoxyphenyl)pyridin-3-yl)-1,2-oxaborolan-2-ol, enantiomer 1]	986	7.87	41.1	5.58	–	–	–
COc1ccc(-c2cncc(C3COB(O)C3)c2)cc1OC1CCSCC1 (single isomer, unassigned; enantiomer 1) [Example 170, 4-(5-(4-methoxy-3-((tetrahydro-2H-thiopyran-4-yl)oxy)phenyl)pyridin-3-yl)-1,2-oxaborolan-2-ol, enantiomer 1]	1070	2.83	48.5	3.78	–	–	–
CCOc1cc(-c2cccc(C3COB(O)C3)n2)ccc1SC (single isomer, unassigned; enantiomer 1) [Example 204, 4-(6-(3-ethoxy-4-(methylthio)phenyl)pyridin-2-yl)-1,2-oxaborolan-2-ol, enantiomer 1]	1710	21.8	22.7	6.07	–	–	–
CCCOc1c(OC)ccc(-c2cncc(C3COB(O)C3)n2)c1F (single isomer, unassigned; enantiomer 1) [Example 216, 4-(6-(2-fluoro-4-methoxy-3-propoxyphenyl)pyrazin-2-yl)-1,2-oxaborolan-2-ol, enantiomer 1]	2860	1.94	19.6	4.05	–	–	–
CCOc1cc(C2COB(O)C2)nc(-c2ccc(OC)c(OCC)c2)n1 (single isomer, unassigned; enantiomer 1) [Example 223, 4-(6-ethoxy-2-(3-ethoxy-4-methoxyphenyl)pyrimidin-4-yl)-1,2-oxaborolan-2-ol, enantiomer 1]	2690	22.5	30.9	6.67	–	–	–
CCCOc1cc(-c2ccc(F)c(C3COB(O)C3)n2)ccc1OC (single isomer, unassigned; enantiomer 1) [Example 230, 4-(3-fluoro-6-(4-methoxy-3-propoxyphenyl)pyridin-2-yl)-1,2-oxaborolan-2-ol, enantiomer 1]	2780	26.5	141	17.1	–	–	–
CCCOc1cc(-c2nc(CO)cc(C3COB(O)C3)n2)c(F)cc1OC (single isomer, unassigned; enantiomer 2) [Example 154, (−) 4-(2-(2-fluoro-4-methoxy-5-propoxyphenyl)-6-(hydroxymethyl)pyrimidin-4-yl)-1,2-oxaborolan-2-ol, enantiomer 2]	893	15.2	31.4	14.1	–	–	–
CCOc1cc(-c2cncc(C3COB(O)C3)c2)cc(Cl)c1OC (single isomer, unassigned; enantiomer 2) [Example 173, 4-(5-(3-chloro-5-ethoxy-4-methoxyphenyl)pyridin-3-yl)-1,2-oxaborolan-2-ol, enantiomer 2]	–	–	–	10	1130	30.2	77.1
COc1cc(-c2ccc(OC)c(OC3CCCC3)c2)nc(C2COB(O)C2)n1 (single isomer, unassigned; enantiomer 2) [Example 176, 4-(4-(3-(cyclopentyloxy)-4-methoxyphenyl)-6-methoxypyrimidin-2-yl)-1,2-oxaborolan-2-ol, enantiomer 2]	1140	2.98	6.51	5.51	–	–	–

Compounds with a lower IC50 [1], results first:

IC50 (IL-13; Homo sapiens, PBMC) [nM]	IC50 (IFNγ; Homo sapiens, PBMC) [nM]	IC50 (IL-4; Homo sapiens, PBMC) [nM]	IC50 [1] [nM]	IC50 (IL-13) [nM]	IC50 (IFNγ) [nM]	IC50 (IL-4) [nM]	SMILES
1260	0.64	1.17	0.88	–	–	–	CCCOc1c(OC)ccc(-c2cncc(C3COB(O)C3)c2)c1OC (single isomer, unassigned; enantiomer 1) [Example 168, (−) 4-(5-(2,4-dimethoxy-3-propoxphenyl)pyridin-3-yl)-1,2-oxaborolan-2-ol, enantiomer 1]
2730	0.74	0.72	0.98	–	–	–	CCCOc1cc(-c2cncc(C3COB(O)C3)c2)ncc1OC (single isomer, unassigned; enantiomer 1) [Example 179, 4-(5-methoxy-4-propoxy-[2,3′-bipyridin]-5-yl)-1,2-oxaborolan-2-ol, enantiomer 1]
1290	6.65	6.33	3.01	–	–	–	CCCOc1cc(-c2cc(C3COB(O)C3)cc(CO)n2)ccc1OC (single isomer, unassigned; enantiomer 1) [Example 180, 4-(2-(hydroxymethyl)-6-(4-methoxy-3-propoxyphenyl)pyridin-4-yl)-1,2-oxaborolan-2-ol, enantiomer 1]
–	–	–	0.63	1530	2.16	73.1	COc1ccc(-c2cncc(C3COB(O)C3)c2)cc1OC1CC1 (single isomer, unassigned; enantiomer 1) [Example 193, 4-(5-(3-cyclopropoxy-4-methoxyphenyl)pyridin-3-yl)-1,2-oxaborolan-2-ol, enantiomer 1]
1540	14.7	2.85	3.63	–	–	–	CCOc1cc(-c2nc(C3COB(O)C3)cs2)ccc1OC (single isomer, unassigned; enantiomer 1) [Example 194, (−) 4-(2-(3-ethoxy-4-methoxyphenyl)thiazol-4-yl)-1,2-oxaborolan-2-ol, enantiomer 1]
1540	0.81	0.29	0.34	–	–	–	CCCOc1cc(-c2nc(OCCO)cc(C3COB(O)C3)n2)ccc1OC (single isomer, unassigned; enantiomer 1) [Example 196, (−) 4-(6-(2-hydroxyethoxy)-2-(4-methoxy-3-propoxyphenyl)pyrimidin-4-yl)-1,2-oxaborolan-2-ol, enantiomer 1]
1770	1.09	1.06	0.52	–	–	–	CCOc1cc(-c2c(C)ncc(C3COB(O)C3)c2C)ccc1OC (single isomer, unassigned; enantiomer 1) [Example 205, (+) 4-(5-(3-ethoxy-4-methoxyphenyl)-4,6-dimethylpyridin-3-yl)-1,2-oxaborolan-2-ol, enantiomer 1]
2130	1.67	4.1	0.82	–	–	–	CCCOc1cc(-c2cc(C3COB(O)C3)cnc2C)cnc1OC (single isomer, unassigned; enantiomer 1) [Example 219, (−) 4-(6′-methoxy-2-methyl-5′-propoxy-[3,3′-bipyridin]-5-yl)-1,2-oxaborolan-2-ol, enantiomer 1]
2950	1.72	1.25	1.98	–	–	–	CCCOc1nc(-c2cc(C3COB(O)C3)cnc2C)ccc1OC (single isomer, unassigned; enantiomer 1) [Example 231, (−) 4-(5-methoxy-2′-methyl-6-propoxy-[2,3′-bipyridin]-5′-yl)-1,2-oxaborolan-2-ol, enantiomer 1]
